For experiment [1], the system named is FMAL-actin plus TMR-cC0-C2. The experiment in a line: Selleck library HTS, 473 nm excitation (FLT of FMAL-actin with TMR-cC0-C2, FLT-FRET). The experiment is classed as binding, human. To be noted: for 473-nm Δτ, Repeat 1 / 473-nm Δτ, Repeat 2: initial screen, 30 μM compound; for 473-nm z-score (based on avg Δτ): robust z-score, hit threshold ±4, 30 μM compound. An outline of the steps:
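Donor fluorescence lifetime was then recorded. Waveforms were fit to a single exponential, and ΔFLT was obtained after a moving-median plate-gradient correction (half-row window), rescaled by the median DMSO lifetime.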

The subject of experiment [2] is PKA-phosphorylated TMR-cC0-C2 (cC0-C2#P). The experiment in a line: FLT-TMR concentration-response assay, PKA-phosphorylated cC0-C2. To be noted: for cC0-C2#P FLT change (% change from DMSO, FLT of TMR-MyBP-C): 60 μM compound; for effect on FLT of PKA-phosphorylated TMR-cC0-C2 (in words): concentration-response, no actin. The experiment is classed as binding, human. An outline of the steps: (§1)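 Hits tested at eight concentrations (0.5–100 μM) and read on a high-throughput fluorescence lifetime plate reader. Hill fits applied only under certain conditions.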

Experiment [3] has as its system FMAL-actin/PKA-phosphorylated TMR-cC0-C2 interaction. The experiment in a line: FLT-FRET concentration-response assay, FMAL-actin plus PKA-phosphorylated TMR-cC0-C2. The class given is binding, human. On the procedure:
(§2) Compounds identified as initial hits were further examined to determine the concentration–response curves for seven conditions ([1]): FMAL-actin alone identified actin-binding compounds that alter the FLT of FMAL-actin ([2]).
(§3) Fluorescence lifetime (FLT) measurements were acquired using a high-throughput FLT plate reader (Fluorescence Innovations, Inc) ([14], [27]), provided by Photonic Pharma LLC. […] The observed waveforms were analyzed as described previously ([15], [28]).
(§4) The primary hits were dissolved in DMSO to make a 10 mM stock solution, which was serially diluted in 96-well mother plates. Hits were screened at eight concentrations (0.5–100 μM). […] Compounds (1 μl) were transferred from the mother plates into 384-well plates using a Mosquito HV liquid handler (TTP Labtech Ltd, Hertfordshire, UK). The same procedure of dispensing as for the pilot screening was applied in the concentration-response assays. Concentration dependence of the FLT-FRET (E/EDMSO) or FLT-TMR (Δτ) change data was fit to a Hill equation only under certain conditions to help guide the eye (Fig. 4).

Experiment [4] deals with FMAL-actin/TMR-fC1-C2 interaction. The experiment in a line: FLT-FRET concentration-response assay, FMAL-actin plus TMR-fC1-C2. The class given is binding. On the procedure:
as §2, §3, §4

Experiment [5] concerns TMR-fC1-C2 (C1-C2 of fast skeletal MyBP-C). The experiment in a line: FLT-TMR concentration-response assay, fC1-C2. To be noted: for cC0-C2/fC1-C2 (ratio of FLT changes) / fC1-C2 FLT change (% change from DMSO, FLT of TMR-MyBP-C): 60 μM compound; for effect on FLT of TMR-fC1-C2 (in words): concentration-response, no actin; for difference in effect on TMR FLT between unphosphorylated TMR-cC0-C2 and TMR-fC1-C2: from Table 3. The experiment is classed as binding. An outline of the steps:
as §1

The test system of another experiment is TMR-cC0-C2. The experiment in a line: Selleck library HTS, 532 nm excitation (FLT of TMR-cC0-C2 in presence of FMAL-actin). The experiment is classed as binding, human. To be noted: for 532-nm Δτ, Repeat 1 / 532-nm Δτ, Repeat 2: initial screen, 30 μM compound; for 532-nm z-score (based on avg Δτ): robust z-score, hit threshold ±4, 30 μM compound.
Experiment [6] deals with FMAL-actin/TMR-cC0-C2 interaction. The experiment in a line: FLT-FRET concentration-response assay, FMAL-actin plus TMR-cC0-C2. The experiment is classed as binding, human. The conditions noted are these: for effect on FLT-FRET / binding between FMAL-actin and TMR-cC0-C2 (in words): unphosphorylated cC0-C2; for specificity of FLT-FRET effect for unphosphorylated over phosphorylated cC0-C2: effect on cC0-C2 compared to phosphorylated cC0-C2 (Tables 1 and 2). An outline of the steps:
as §1

The test system of experiment [7] is TMR-cC0-C2 (C0-C2 fragment of human cMyBP-C). The experiment in a line: FLT-TMR concentration-response assay (FLT of TMR on cC0-C2, no actin). The class given is binding. To be noted: for cC0-C2/cC0-C2#P (ratio of FLT changes) / cC0-C2 FLT change (% change from DMSO, FLT of TMR-MyBP-C): 60 μM compound; for effect on FLT of TMR-cC0-C2 (in words): concentration-response, no actin; for difference in effect on TMR FLT between unphosphorylated and phosphorylated TMR-cC0-C2: from Table 3. The method in brief: as §1

Like-named read-outs stand apart in the source and are kept apart here.

Turning to `CCC(=O)O[C@H]1[C@H](O[C@@H]2[C@@H](C)[C@H](O[C@H]3C[C@@](C)(OC)[C@@H](O)[C@H](C)O3)[C@@H](C)C(=O)O[C@H](CC)[C@@](C)(O)[C@H](O)[C@@H](C)C(=O)[C@H](C)C[C@@]2(C)O)O[C@H](C)C[C@@H]1N(C)C` [Erythromycin estolate], in experiment [1], the “473-nm Δτ, Repeat 1” value is recorded as 0.149 ns; the “473-nm Δτ, Repeat 2” value is recorded as 0.101 ns; the “473-nm z-score (based on avg Δτ)” value was 7.01. Also, in experiment [2], the “cC0-C2#P FLT change (% change from DMSO, FLT of TMR-MyBP-C)” value is recorded as −2.4% and the “effect on FLT of PKA-phosphorylated TMR-cC0-C2 (in words)” value is given as “decreases”. For the same compound, the “effect on FLT-FRET / binding between FMAL-actin and PKA-phosphorylated TMR-cC0-C2 (in words)” value in experiment [3] is recorded as “decreased”. Further, the “effect on FLT-FRET / binding between FMAL-actin and PKA-phosphorylated TMR-cC0-C2 (in words)” value in experiment [3] (listed as Erthromycin estolate) is “biphasic effect”. Further, the “effect on FLT-FRET / binding between FMAL-actin and TMR-fC1-C2 (in words)” value in experiment [4] is recorded as “decreased”. In addition, the “effect on FLT-FRET / binding between FMAL-actin and TMR-fC1-C2 (in words)” value in experiment [4] (listed as Erthromycin estolate) was “biphasic effect”. Also, in experiment [5], the “cC0-C2/fC1-C2 (ratio of FLT changes)” value is listed as 6.7; the “fC1-C2 FLT change (% change from DMSO, FLT of TMR-MyBP-C)” value is −2.1%; the “effect on FLT of TMR-fC1-C2 (in words)” value is “decreases”; the “difference in effect on TMR FLT between unphosphorylated TMR-cC0-C2 and TMR-fC1-C2” value turned out to be 6.7 fold. In the experiment on TMR-cC0-C2, the “532-nm Δτ, Repeat 1” value was 0.002 ns; the “532-nm Δτ, Repeat 2” value is -0.031 ns; the “532-nm z-score (based on avg Δτ)” value is -0.86. For the same compound, the “effect on FLT-FRET / binding between FMAL-actin and TMR-cC0-C2 (in words)” value in experiment [6] was “decreased”. Further, in experiment [6] (listed as Erthromycin estolate), the “effect on FLT-FRET / binding between FMAL-actin and TMR-cC0-C2 (in words)” value was “biphasic effect”. In addition, in experiment [7], the “cC0-C2/cC0-C2#P (ratio of FLT changes)” value was 5.9; the “cC0-C2 FLT change (% change from DMSO, FLT of TMR-MyBP-C)” value is given as −14.1%; the “effect on FLT of TMR-cC0-C2 (in words)” value was “affect”; the “difference in effect on TMR FLT between unphosphorylated and phosphorylated TMR-cC0-C2” value came out at 5.9 fold. Moreover, the “effect on FLT of TMR-cC0-C2 (in words)” value in experiment [7] (listed as Erthromycin estolate) was “decreases”.
As to `Clc1ccc(C(Cn2ccnc2)OCc2ccc(Sc3ccccc3)cc2)c(Cl)c1` (stereo not shown) [Fenticonazole nitrate], in experiment [1], the “473-nm Δτ, Repeat 1” value was -0.069 ns; the “473-nm Δτ, Repeat 2” value is reported as -0.104 ns; the “473-nm z-score (based on avg Δτ)” value is given as -4.80. Besides, in experiment [2], the “cC0-C2#P FLT change (% change from DMSO, FLT of TMR-MyBP-C)” value is −6.0% and the “effect on FLT of PKA-phosphorylated TMR-cC0-C2 (in words)” value is recorded as “slightly decreases”. In addition, in experiment [3], the “preference for increasing the binding of phosphorylated over unphosphorylated cC0-C2 (FLT-FRET)” value was 5 fold; the “effect on FLT-FRET / binding between FMAL-actin and PKA-phosphorylated TMR-cC0-C2 (in words)” value is “increases”. For the same compound, the “effect on FLT-FRET / binding between FMAL-actin and TMR-fC1-C2 (in words)” value in experiment [4] is “does not have any effect”. In experiment [5], the “cC0-C2/fC1-C2 (ratio of FLT changes)” value amounted to 11.8; the “fC1-C2 FLT change (% change from DMSO, FLT of TMR-MyBP-C)” value stood at 0.4%; the “effect on FLT of TMR-fC1-C2 (in words)” value is on record as “does not affect”; the “difference in effect on TMR FLT between unphosphorylated TMR-cC0-C2 and TMR-fC1-C2” value is 11.8 fold. For the same compound, in the experiment on TMR-cC0-C2, the “532-nm Δτ, Repeat 1” value is given as -0.011 ns; the “532-nm Δτ, Repeat 2” value was -0.035 ns; the “532-nm z-score (based on avg Δτ)” value is -1.35. Moreover, in experiment [6], the “effect on FLT-FRET / binding between FMAL-actin and TMR-cC0-C2 (in words)” value is “does not have any effect”. Also, in experiment [7], the “cC0-C2/cC0-C2#P (ratio of FLT changes)” value stood at 0.8; the “cC0-C2 FLT change (% change from DMSO, FLT of TMR-MyBP-C)” value is given as −4.7%; the “effect on FLT of TMR-cC0-C2 (in words)” value was “slightly decreases”.
`COc1cc(Nc2ncc(F)c(Nc3ccc4c(n3)N(COP(=O)(O)O)C(=O)C(C)(C)O4)n2)cc(OC)c1OC` [Fostamatinib (R788), Fostamatinib]: in experiment [1], the “473-nm Δτ, Repeat 1” value is listed as 0.110 ns; the “473-nm Δτ, Repeat 2” value is reported as 0.046 ns; the “473-nm z-score (based on avg Δτ)” value is on record as 4.40. In addition, the “cC0-C2#P FLT change (% change from DMSO, FLT of TMR-MyBP-C)” value in experiment [2] is reported as 0.7%. For the same compound, the “effect on FLT-FRET / binding between FMAL-actin and PKA-phosphorylated TMR-cC0-C2 (in words)” value in experiment [3] is given as “decreased”. Also, the “effect on FLT-FRET / binding between FMAL-actin and TMR-fC1-C2 (in words)” value in experiment [4] is reported as “decreased”. In experiment [5], the “cC0-C2/fC1-C2 (ratio of FLT changes)” value was 5.8; the “fC1-C2 FLT change (% change from DMSO, FLT of TMR-MyBP-C)” value amounted to 0.4%; the “difference in effect on TMR FLT between unphosphorylated TMR-cC0-C2 and TMR-fC1-C2” value came out at 5.8 fold. In the experiment with TMR-cC0-C2, the “532-nm Δτ, Repeat 1” value is recorded as -0.027 ns; the “532-nm Δτ, Repeat 2” value was -0.063 ns; the “532-nm z-score (based on avg Δτ)” value is listed as -2.72. Moreover, in experiment [6], the “specificity of FLT-FRET effect for unphosphorylated over phosphorylated cC0-C2” value worked out at 5 fold; the “effect on FLT-FRET / binding between FMAL-actin and TMR-cC0-C2 (in words)” value is reported as “decreased”. Besides, in experiment [7], the “cC0-C2/cC0-C2#P (ratio of FLT changes)” value was 3.3; the “cC0-C2 FLT change (% change from DMSO, FLT of TMR-MyBP-C)” value was determined as 2.3%; the “effect on FLT of TMR-cC0-C2 (in words)” value is listed as “affect”; the “difference in effect on TMR FLT between unphosphorylated and phosphorylated TMR-cC0-C2” value was 3.3 fold.
Take Tocofersolan: in experiment [1], the “473-nm Δτ, Repeat 1” value is recorded as -0.166 ns; the “473-nm Δτ, Repeat 2” value was -0.159 ns; the “473-nm z-score (based on avg Δτ)” value is recorded as -9.06. Besides, the “cC0-C2#P FLT change (% change from DMSO, FLT of TMR-MyBP-C)” value in experiment [2] turned out to be 3.2%. Also, in experiment [3], the “effect on FLT-FRET / binding between FMAL-actin and PKA-phosphorylated TMR-cC0-C2 (in words)” value was “no effect”. In addition, the “effect on FLT-FRET / binding between FMAL-actin and TMR-fC1-C2 (in words)” value in experiment [4] was “affected the binding to actin”. In addition, in experiment [5], the “cC0-C2/fC1-C2 (ratio of FLT changes)” value is on record as 1.2 and the “fC1-C2 FLT change (% change from DMSO, FLT of TMR-MyBP-C)” value came out at 2.8%. In addition, in the experiment on TMR-cC0-C2, the “532-nm Δτ, Repeat 1” value was found to be 0.072 ns; the “532-nm Δτ, Repeat 2” value was 0.065 ns; the “532-nm z-score (based on avg Δτ)” value was 4.23. Further, the “fold effect on increased FRET (or binding) (Table 2)” value in experiment [6] (comparison not given) was “fivefold or greater”. Besides, in experiment [6], the “specificity of FLT-FRET effect for unphosphorylated over phosphorylated cC0-C2” value was 13–54 fold; the “effect on FLT-FRET / binding between FMAL-actin and TMR-cC0-C2 (in words)” value is listed as “affected the binding to actin”. In addition, in experiment [7], the “cC0-C2/cC0-C2#P (ratio of FLT changes)” value came to 1.0 and the “cC0-C2 FLT change (% change from DMSO, FLT of TMR-MyBP-C)” value stood at 3.3%.

(Values after PMC10692721, “Drug discovery for heart failure targeting myosin-binding protein C” (The Journal of Biological Chemistry, 2023).)
